# Results taken from patent publication US20250051375A1, “ANTI-HIV COMPOUNDS” (Gilead Sciences, Inc., priority 2023, published 2025).
# Like-named read-outs stand apart in the source and are kept apart here.
# Experiments:
# [1] = Intestinal S9 Assay (dog GI S9); assay type: in vitro ADME; conditions: dog, 1.0 mg/mL S9 protein, TRIS pH 7.4, read-out: Dog GI S9 T½
# Method: (§1) Reagents. Stock solutions of test compounds in dimethyl sulfoxide (DMSO) having a final concentration of 10 mM were prepared and used in all experiments. Sekisui XenoTech (Kansas City, KS) provided pooled intestinal S9 fractions. All other chemicals were purchased from Sigma-Aldrich (St. Louis, MO) or VWR (West Chester, PA). Internal Standard/Quench (IS/Q) used to stop reactions was 100 nM labetalol in (by volume) formic acid (1%) and acetonitrile (99%).
# (§2) Intestinal S9 Assay: For each test compound, an aliquot of the test compound was added to S9 stock diluted with TRIS buffer (100 mM TRIS, 1 mM ZnCl2, 1 mM MgCl2), pH 7.4, to obtain an incubation protein concentration of 1.0 mg/mL. The incubation was initiated by the addition of the substrate to the S9 reaction mixture to a final concentration of 2 μM. At 0, 10, 20, 30, 60 and 120 min, 25 μL aliquots of the reaction mixture were transferred to plates containing 225 μl of IS/Q solution. After quenching, the plates were centrifuged at 3000×g for 30 minutes. 150 μL aliquots of each supernatant were transferred to new plates and 150 μL water was added. Aliquots (10 μL) of the prepared samples were analyzed on a Thermo Q-Exactive mass spectrometer as described below.
# (§3) Liquid Chromatography-Mass Spectrometry: Quantification of test compounds and control substrate was performed by analyte/internal standard peak area ratio (PAR) values measured on a Thermo Q-Exactive mass spectrometer coupled to a Dionex UltiMate 3000 HPLC with a Leap Technologies HTC PAL autosampler. The column used for analysis was a Thermo Scientific Hypersil GOLD (1.9 μm particle size, 50×2.1 mm). Mobile phase A consisted of 0.1% (v/v) formic acid in water. Mobile phase B consisted of 0.1% (v/v) formic acid in acetonitrile. Elution of analytes was achieved by a series of linear gradients varying the proportions of A and B. The mass spectrometer was calibrated on a weekly basis and mass tolerance of 5 ppm was used.
# (§4) Data Analysis. Metabolic stabilities were determined by measuring the rates of disappearance of test compound and positive control substrate. Data (% of substrate remaining) were plotted on a semi-log scale and fitted using an exponential decline model:
# (§5) where • Ct% of substrate remaining at time=t • C0% of substrate remaining at time=0 • t time • T½ half-life • The Half-life (T½) is determined by the following equation:
# (§6) [formula] • Assuming a first-order reaction, the slope (k) is extrapolated from the aforementioned plotted data.
# Solubility in FaSSIF = conditions: 23 °C, pH 6.5, fassif, thermodynamic from solid
# Outline: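 Concentration measured by HPLC-UV after solid compound was dosed at 5 mg/mL into pH 6.5 fasted-state simulated intestinal fluid containing taurocholate and lecithin (4:1 molar) and vortexed.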
# [2] = target: bovine intestinal alkaline phosphatase (Bos taurus (Bovine), UniProt P19111); experiment: BiALP: conversion by bovine intestinal alkaline phosphatase; assay type: in vitro ADME; conditions: 2 μM substrate, 100 ng/mL iALP, Tris pH 7.8, 37° C., 60 minutes
# bovine intestinal alkaline phosphatase, sequence (P19111 20-506): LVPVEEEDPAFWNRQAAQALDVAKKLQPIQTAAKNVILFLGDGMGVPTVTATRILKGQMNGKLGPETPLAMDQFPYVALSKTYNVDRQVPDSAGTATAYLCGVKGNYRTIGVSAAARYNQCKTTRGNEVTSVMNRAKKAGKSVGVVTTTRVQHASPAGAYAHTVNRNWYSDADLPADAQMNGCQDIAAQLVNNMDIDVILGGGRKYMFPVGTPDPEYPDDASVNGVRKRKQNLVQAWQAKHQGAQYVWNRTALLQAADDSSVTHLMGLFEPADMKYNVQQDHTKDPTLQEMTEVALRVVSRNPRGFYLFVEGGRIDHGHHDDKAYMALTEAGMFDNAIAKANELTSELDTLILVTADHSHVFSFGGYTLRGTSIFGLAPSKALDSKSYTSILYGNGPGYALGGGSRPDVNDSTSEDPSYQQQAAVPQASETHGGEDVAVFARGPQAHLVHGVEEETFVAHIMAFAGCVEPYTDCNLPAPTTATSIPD
# Outline: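 LC-MS (positive mode) quantified analyte/internal-standard peak area ratios, referenced to 2 μM parent product. This followed a 60 min, 37° C reaction of 2 μM substrate in Tris buffer pH 7.8 (1 mM MgCl2, 1 mM ZnCl2) containing 100 ng/mL iALP or buffer alone, run in triplicate.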
# [3] = Intestinal S9 Assay (human GI S9); assay type: in vitro ADME; conditions: 1.0 mg/mL S9 protein; for Human GI S9 T½: 2 μM, TRIS pH 7.4; for half-life at 2 μM: human, TRIS pH 7.4, read-out: Human GI S9 T½
# Method: as §1, §2, §3, §4, §5, §6
# HIV-1 IIIB strain = experiment: MT-4 HIV Wild Type Virus Infection Assay (IIIB Virus); assay type: cell-based; conditions: Human immunodeficiency virus 1, IIIB, MT4, 120 h, MT-4 cells acutely infected with HIV-1 IIIB, 5 day incubation, Cell-titer glo
# Outline: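 MT-4 cells at 2×10^6 cells/ml in RPMI/10% FBS were acutely infected with HIV-1 IIIB for 1 h at 37° C, diluted 25× and added to serially diluted compounds. After 5 days at 37° C, viability read by CellTiter-Glo luminescence; EC50 from dose-response curves.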
Compound,half-life at 2 μM [1],solubility at 2 h (Solubility in FaSSIF),[Compound] [2],Human GI S9 T½ [3],EC50 (HIV-1 IIIB strain),half-life at 2 μM [3],"solubility (Solubility in FaSSIF; FaSSIF (pH 6.5) solubility, FaSSIF pH 6.5, dose 5 mg/mL, 2-hour incubation, ambient temperature)",EC50 (HIV-1 IIIB strain; read-out: EC50)
COC(=O)N[C@H](C(=O)N[C@@H](Cc1ccc(C#Cc2cnc(N3CC4CCC(C3)N4C3COC3)nc2)cc1)[C@H](CN(Cc1c(F)cc(-c2ccn(C(F)F)n2)cc1F)NC(=O)[C@@H](NC(=O)OC)C(C)(C)C(F)(F)F)OC(=O)CC(C)(C)c1c(CC(=O)N2C[C@@H](O)C[C@H]2C(=O)O)cc(C)cc1OP(=O)(O)O)C(C)(C)C(F)(F)F [Example 56],6.89 h,2400 µg/mL,1576.7 nM,13.2 h,254 nM,–,–,–
COC(=O)N[C@H](C(=O)N[C@@H](Cc1ccc(C#Cc2cnc(N3CC4CCC(C3)N4C3COC3)nc2)cc1)[C@H](CN(Cc1c(F)cc(-c2ccn(C(F)F)n2)cc1F)NC(=O)[C@@H](NC(=O)OC)C(C)(C)C(F)(F)F)OC(=O)CC(C)(C)c1c(CC(=O)N2CC[C@@H](O)[C@H]2C(=O)O)cc(C)cc1OP(=O)(O)O)C(C)(C)C(F)(F)F [Example 57],7.19 h,4100 µg/mL,1612.8 nM,–,290 nM,11 h,–,–
COC(=O)N[C@H](C(=O)N[C@@H](Cc1ccc(C#Cc2cnc(N3CC4CCC(C3)N4C3COC3)nc2)cc1)[C@H](CN(Cc1c(F)cc(-c2ccn(C(F)F)n2)cc1F)NC(=O)[C@@H](NC(=O)OC)C(C)(C)C(F)(F)F)OC(=O)CC(C)(C)c1c(CC(=O)N2C[C@H](O)C[C@H]2C(=O)O)cc(C)cc1OP(=O)(O)O)C(C)(C)C(F)(F)F [Example 58],7.23 h,4460 µg/mL,1573.2 nM,–,370 nM,12.1 h,–,–
COC(=O)N[C@H](C(=O)N[C@@H](Cc1ccc(C#Cc2cnc(N3CC4CCC(C3)N4C3COC3)nc2)cc1)[C@H](CN(Cc1c(F)cc(-c2ccn(C(F)F)n2)cc1F)NC(=O)[C@@H](NC(=O)OC)C(C)(C)C(F)(F)F)OC(=O)CC(C)(C)c1c(CC(=O)N2C[C@H](OC)C[C@H]2C(=O)O)cc(C)cc1OP(=O)(O)O)C(C)(C)C(F)(F)F [Example 59],6.67 h,3600 µg/mL,1520.4 nM,13.2 h,658 nM,–,–,–
C=C1C[C@@H](C(=O)O)N(C(=O)Cc2cc(C)cc(OP(=O)(O)O)c2C(C)(C)CC(=O)O[C@@H](CN(Cc2c(F)cc(-c3ccn(C(F)F)n3)cc2F)NC(=O)[C@@H](NC(=O)OC)C(C)(C)C(F)(F)F)[C@H](Cc2ccc(C#Cc3cnc(N4CC5CCC(C4)N5C4COC4)nc3)cc2)NC(=O)[C@@H](NC(=O)OC)C(C)(C)C(F)(F)F)C1 [Example 60],5.81 h,–,1457.7 nM,–,–,12 h,3480 µg/mL,218 nM
COC(=O)N[C@H](C(=O)N[C@@H](Cc1ccc(C#Cc2cnc(N3CC4CCC(C3)N4C3COC3)nc2)cc1)[C@H](CN(Cc1c(F)cc(-c2ccn(C(F)F)n2)cc1F)NC(=O)[C@@H](NC(=O)OC)C(C)(C)C(F)(F)F)OC(=O)CC(C)(C)c1c(CC(=O)N2CC(C)(C)C[C@H]2C(=O)O)cc(C)cc1OP(=O)(O)O)C(C)(C)C(F)(F)F [Example 61],11.2 h,2580 µg/mL,1611.1 nM,–,1890 nM,11.7 h,–,–
COC(=O)N[C@H](C(=O)N[C@@H](Cc1ccc(C#Cc2cnc(N3CC4CCC(C3)N4C3COC3)nc2)cc1)[C@H](CN(Cc1c(F)cc(-c2ccn(C(F)F)n2)cc1F)NC(=O)[C@@H](NC(=O)OC)C(C)(C)C(F)(F)F)OC(=O)CC(C)(C)c1c(CC(=O)Nc2cc(C#N)cc(C(=O)O)c2)cc(C)cc1OP(=O)(O)O)C(C)(C)C(F)(F)F [Example 63],6.37 h,495 µg/mL,1778.4 nM,13.2 h,244 nM,–,–,–
COC(=O)N[C@H](C(=O)N[C@@H](Cc1ccc(C#Cc2cnc(N3CC4CCC(C3)N4C3COC3)nc2)cc1)[C@H](CN(Cc1c(F)cc(-c2ccn(C(F)F)n2)cc1F)NC(=O)[C@@H](NC(=O)OC)C(C)(C)C(F)(F)F)OC(=O)CC(C)(C)c1c(CC(=O)N2CCC[C@H]2C(=O)O)cc(C)cc1OP(=O)(O)O)C(C)(C)C(F)(F)F [Example 79],9.38 h,2680 µg/mL,2057.5 nM,–,645 nM,10.2 h,–,–
COC(=O)N[C@H](C(=O)N[C@@H](Cc1ccc(C#Cc2cnc(N3CC4CCC(C3)N4C3COC3)nc2)cc1)[C@H](CN(Cc1c(F)cc(-c2ccn(C(F)F)n2)cc1F)NC(=O)[C@@H](NC(=O)OC)C(C)(C)C(F)(F)F)OC(=O)CC(C)(C)c1c(CC(=O)NC23CC4CC(C2)CC(C(=O)O)(C4)C3)cc(C)cc1OP(=O)(O)O)C(C)(C)C(F)(F)F [Example 108],4.46 h,< 1000 µg/mL,2296.1 nM,–,444 nM,7.21 h,–,–
COC(=O)N[C@H](C(=O)N[C@@H](Cc1ccc(C#Cc2cnc(N3CC4CCC(C3)N4C3COC3)nc2)cc1)[C@H](CN(Cc1c(F)cc(-c2ccn(C(F)F)n2)cc1F)NC(=O)[C@@H](NC(=O)OC)C(C)(C)C(F)(F)F)OC(=O)CC(C)(C)c1c(CC(=O)Nc2cc(C(=O)O)cc(S(C)(=O)=O)c2)cc(C)cc1OP(=O)(O)O)C(C)(C)C(F)(F)F [Example 109],2.23 h,< 1000 µg/mL,1951.1 nM,–,90.5 nM,4.48 h,–,–
COC(=O)N[C@H](C(=O)N[C@@H](Cc1ccc(C#Cc2cnc(N3CC4CCC(C3)N4C3COC3)nc2)cc1)[C@H](CN(Cc1c(F)cc(-c2ccn(C(F)F)n2)cc1F)NC(=O)[C@@H](NC(=O)OC)C(C)(C)C(F)(F)F)OC(=O)CC(C)(C)c1c(CC(=O)N2CC(C(=O)O)C2)cc(C)cc1OP(=O)(O)O)C(C)(C)C(F)(F)F [Example 110],2.81 h,4420 µg/mL,1852.3 nM,–,138 nM,8.51 h,–,–
COC(=O)N[C@H](C(=O)N[C@@H](Cc1ccc(C#Cc2cnc(N3CC4CCC(C3)N4C3COC3)nc2)cc1)[C@H](CN(Cc1c(F)cc(-c2ccn(C(F)F)n2)cc1F)NC(=O)[C@@H](NC(=O)OC)C(C)(C)C(F)(F)F)OC(=O)CC(C)(C)c1c(CC(=O)N2CCC[C@@H]2C(=O)O)cc(C)cc1OP(=O)(O)O)C(C)(C)C(F)(F)F [Example 111],1.64 h,4760 µg/mL,1803.5 nM,–,452 nM,10.3 h,–,–
COC(=O)N[C@H](C(=O)N[C@@H](Cc1ccc(C#Cc2cnc(N3CC4CCC(C3)N4C3COC3)nc2)cc1)[C@H](CN(Cc1c(F)cc(-c2ccn(C(F)F)n2)cc1F)NC(=O)[C@@H](NC(=O)OC)C(C)(C)C(F)(F)F)OC(=O)CC(C)(C)c1c(CC(=O)N2CCC(C(=O)O)CC2C(=O)O)cc(C)cc1OP(=O)(O)O)C(C)(C)C(F)(F)F (some centres unmarked) [Example 113],3.38 h,4140 µg/mL,1948 nM,–,341 nM,6.56 h,–,–
